# Laboratory results reported in ChEMBL document CHEMBL1201862, “PubChem BioAssay data set” (2004).
# Activity calls are given as the source filed them.
# What was measured:
# [1] = Luminescence Cell-Based Dose Response to Identify Activators of Luciferase Translation or Activity in H4-C Neuroglioblastoma Cells. [Related pubchem assays: 1829 (Project Summary), 1814 (Primary HTS)]; assay type: functional
# [2] = Luminescence Cell-Based Dose Confirmation HTS to Identify Activators of 5'UTR Stem-Loop Driven Alpha-Synuclein mRNA Translation in H4 Neuroglioblastoma Cells. [Related pubchem assays: 1829 (Project Summary), 1814 (Primary HTS)]; assay type: functional
# H4 = experiment: Luminescence Cell-Based Dose Response HTS to Identify Activators of 5'UTR Stem-Loop Driven Prion Protein mRNA Translation in H4 Neuroglioblastoma Cells. [Related pubchem assays: 1829 (Project Summary), 1814 (Primary HTS)]; assay type: functional; settings: Homo sapiens
# [3] = Luminescence Cell-Based Dose Confirmation to Identify Activators of 5'UTR Stem-Loop Driven Alpha-Synuclein mRNA Translation in H4 Neuroglioblastoma Cells. [Related pubchem assays: 1829 (Project Summary), 1814 (Primary HTS)]; assay type: functional
# [4] = Luminescence Cell-Based Dose Response HTS to Identify Activators of Luciferase Translation or Activity in H4 […] Cells. [Related pubchem assays: 1829 (Project Summary), 1814 (Primary HTS)]; assay type: functional
# [5] = Luminescence Cell-Based Dose Response to Identify Activators of 5'UTR Stem-Loop Driven Prion Protein mRNA Translation in H4-C Neuroglioblastoma Cells. [Related pubchem assays: 1829 (Project Summary), 1814 (Primary HTS)]; assay type: functional
# [6] = Luminescence-based cell-based high throughput dose response assay to identify activators of the DAF-12 from the parasite S. stercoralis (ssDAF-12).; assay type: functional
# [7] = target: T1, Oxysterols receptor LXR-beta (Homo sapiens, UniProt P55055); experiment: LXR agonists, Gal4 luciferase reporter, dose response, counter-screen for ssDAF-12 agonist project, cell-based, luminescence, HEK293, S. stercoralis campaign (AID 720737); assay type: functional; settings: read-out: IC50 (the source's name)
# T1 sequence (P55055 whole entry): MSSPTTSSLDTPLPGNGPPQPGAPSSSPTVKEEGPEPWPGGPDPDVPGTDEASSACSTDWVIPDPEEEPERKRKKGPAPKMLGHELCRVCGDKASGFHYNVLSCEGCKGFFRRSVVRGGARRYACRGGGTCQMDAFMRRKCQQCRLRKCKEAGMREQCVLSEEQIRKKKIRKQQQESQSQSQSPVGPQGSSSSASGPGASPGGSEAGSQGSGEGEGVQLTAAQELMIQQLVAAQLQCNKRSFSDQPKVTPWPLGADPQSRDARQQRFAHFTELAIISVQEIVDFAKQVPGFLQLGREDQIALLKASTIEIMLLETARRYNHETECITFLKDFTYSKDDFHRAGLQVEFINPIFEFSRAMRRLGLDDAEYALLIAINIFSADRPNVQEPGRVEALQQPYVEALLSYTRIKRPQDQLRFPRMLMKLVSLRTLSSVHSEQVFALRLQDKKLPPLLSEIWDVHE
# [8] = target: Disintegrin and metalloproteinase domain-containing protein 17 (Homo sapiens, UniProt P78536); experiment: inhibition of ADAM17 substrate cleavage – biochemical, quenched FRET substrate, counter-screen for ADAM10 exosite inhibitor project, dose response (AID 743253)
# [9] = potency of ADAM10 substrate cleavage blockers – biochemical, QFRET, dose response (AID 743254);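 note: ADAM10 enzyme with the DM2 quenched FRET peptide as substrate; EDANS fluorescence gain as the protease cuts the substrate; inhibitor potency against ADAM10 proteolytic activity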
# [10] = general mammalian cell viability loss – inhibitor set, cherry-pick, set 2, cytotoxicity control for miR-122 modulator project, dose response (AID 720697); assay type: functional, cell-based
# [11] = target: T2, Sentrin-specific protease 8 (Homo sapiens, UniProt Q96LD8); assay type: functional
# T2 sequence (Q96LD8 whole entry): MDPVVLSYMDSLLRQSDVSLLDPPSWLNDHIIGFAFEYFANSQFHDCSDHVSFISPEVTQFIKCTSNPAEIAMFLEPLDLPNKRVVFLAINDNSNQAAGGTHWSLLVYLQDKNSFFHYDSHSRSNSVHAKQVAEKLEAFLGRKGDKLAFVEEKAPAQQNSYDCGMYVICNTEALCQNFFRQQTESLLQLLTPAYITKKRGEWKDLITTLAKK
# [12] = target: T2, Sentrin-specific protease 8; assay type: functional; remark: listed apart in the source
# Caspase-6 = target: T3, Caspase-6 (Homo sapiens, UniProt P55212); experiment: inhibition of CASP6 peptide cleavage – biochemical, VEID-R110 fluorescence, cherry-pick, dose response (AID 720632)
# T3 sequence (P55212 whole entry): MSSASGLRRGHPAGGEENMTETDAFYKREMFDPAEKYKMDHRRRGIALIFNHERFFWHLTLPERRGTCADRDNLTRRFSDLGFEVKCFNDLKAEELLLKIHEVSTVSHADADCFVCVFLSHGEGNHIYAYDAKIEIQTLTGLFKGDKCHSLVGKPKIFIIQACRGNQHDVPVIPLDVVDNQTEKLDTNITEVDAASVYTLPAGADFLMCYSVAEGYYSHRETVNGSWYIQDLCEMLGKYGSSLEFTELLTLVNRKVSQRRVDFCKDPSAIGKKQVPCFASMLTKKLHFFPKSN
# [13] = blockade of melanocortin 4 receptor signaling – cell-based, plate reader, cherry pick, counter-screen for LGR2 antagonist project, dose response (AID 743444); assay type: functional;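 note: transfected HEK 293 cells stimulated with alpha-MSH peptide; potency of inhibitors of the alpha-MSH evoked signal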
# [14] = blockers of HIV-1 envelope-mediated cell-cell fusion – cherry-pick, dose response (AID 652057); assay type: functional, cell-based
# [15] = off-target signal loss in HeLa-CEM21 co-culture – HeLa F-luc CTL cells, cherry-picked, counter-screen for HIV-1 Env fusion inhibitor project, dose response (AID 652040); assay type: functional, cell-based;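 note: potency for signal decrease marking cytotoxic or nonspecific inhibition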
# [16] = blockers of bursicon-stimulated LGR2 cAMP reporter – cell-based, HEK293, CRE-luciferase reporter, cherry pick, set 2, dose response (AID 743343); assay type: functional;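 note: transfected cells were stimulated with diluted bursicon conditioned medium after compound addition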
# [17] = HIV-1 AD8 envelope cell-cell fusion blockers – cherry-pick, dose response (AID 652062); assay type: functional, cell-based;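 note: luciferase signal from cell-cell fusion driven by HIV-1 clade B AD8 Env; potency is for inhibitors of fusion seen as a drop in luminescence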
# [18] = Trypanosoma cruzi growth suppression in host cells – NIH3T3 host cells, beta-gal luminescence, confirmation (AID 2044); assay type: functional, cell-based;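 note: intracellular parasites grown in NIH/3T3 mouse fibroblasts as host cells; luminescent beta-galactosidase reporter signal from transgenic T. cruzi replicating inside host cells; inhibitors lower the luminescence signal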
# [19] = NIH3T3 cell viability loss – ATP luminescence, mouse fibroblasts, counter-screen, dose response (AID 2010); assay type: functional, cell-based;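 note: cells exposed to compound for about 90 hours before reading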
# Disintegrin and metalloproteinase domain-containing protein 17, sequence (P78536 whole entry, the tested form may be a part): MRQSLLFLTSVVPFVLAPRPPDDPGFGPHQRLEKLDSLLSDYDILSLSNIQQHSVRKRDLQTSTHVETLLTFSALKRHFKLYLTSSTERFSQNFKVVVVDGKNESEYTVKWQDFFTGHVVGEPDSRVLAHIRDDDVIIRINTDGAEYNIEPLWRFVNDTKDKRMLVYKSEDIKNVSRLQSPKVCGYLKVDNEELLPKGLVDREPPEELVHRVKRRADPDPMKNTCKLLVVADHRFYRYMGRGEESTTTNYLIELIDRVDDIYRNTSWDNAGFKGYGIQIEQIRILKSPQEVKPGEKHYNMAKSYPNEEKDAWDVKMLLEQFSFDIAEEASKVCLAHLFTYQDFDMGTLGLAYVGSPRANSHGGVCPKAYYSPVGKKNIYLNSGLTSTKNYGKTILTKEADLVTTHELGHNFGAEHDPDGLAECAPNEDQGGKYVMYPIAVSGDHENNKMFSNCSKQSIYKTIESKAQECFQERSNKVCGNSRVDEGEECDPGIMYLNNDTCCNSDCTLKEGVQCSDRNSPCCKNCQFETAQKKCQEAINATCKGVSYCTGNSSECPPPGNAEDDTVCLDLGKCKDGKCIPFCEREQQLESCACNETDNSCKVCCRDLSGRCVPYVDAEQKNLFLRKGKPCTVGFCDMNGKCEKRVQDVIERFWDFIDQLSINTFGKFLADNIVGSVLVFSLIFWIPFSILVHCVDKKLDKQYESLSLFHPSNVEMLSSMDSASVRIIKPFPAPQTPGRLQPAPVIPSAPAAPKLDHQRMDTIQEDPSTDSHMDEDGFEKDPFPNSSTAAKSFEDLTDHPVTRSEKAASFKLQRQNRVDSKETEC
smiles,measurement,setting,value
Fc1cccc(Cl)c1Cc1noc(/C=C/c2ccccc2)n1,EC50,[1],> 12 µM (not active)
same,EC50,[2],< 0.1 µM (active)
same,EC50,H4,4.36 µM (active)
same,EC50,[3],> 12 µM (not active)
same,EC50,[4],70.3 µM (active)
same,EC50,[5],> 12 µM (not active)
Cc1ccc(NC(=O)C2CC(=O)Nc3nncn32)cc1 (stereo not drawn),IC50,[6],> 67.6 µM (inactive)
same,EC50,[7],> 67.6 µM (inactive)
Cc1ccc(Nc2nc(N)nc(CSc3nc4ccccc4s3)n2)cc1,IC50,[8],> 69.5 µM (inactive)
same,IC50,[9],> 7.72 µM (active)
CCCNC(=O)Nc1ccc2c(c1)C(=O)N(C)[C@@H]1CC[C@H](CC(=O)O)O[C@H]1CO2,AC50,[10],1.82 µM (active)
CC1Cc2ccccc2N1C(=O)COC(=O)c1ccc([N+](=O)[O-])o1 (stereo not drawn),IC50,[11],8.67 µM (active)
same,IC50,[12],3.78 µM (active)
same,AC50,Caspase-6,13 µM (active)
Cc1cc(C(=O)CN2C(=O)c3ccccc3S2(=O)=O)c(C)n1C(C)C,AC50,[13],2.08 µM (active)
same,AC50,[14],3.93 µM (active)
same,AC50,[15],3.75 µM (active)
same,AC50,[16],2.48 µM (active)
same,AC50,[17],7.58 µM (active)
Cc1ccc(C(=O)Nc2ccccc2-c2ccccc2)cc1S(=O)(=O)Nc1cccc(C)c1C,IC50,[8],> 69.5 µM (inactive)
same,IC50,[9],> 69.5 µM (inactive)
same,EC50,[18],1.57 µM (active)
same,EC50,[19],> 60 µM (not active)
